Experimental data reported in patent US9233107B2, “Compositions and methods for the treatment of progressive multifocal leukoencephalopathy (PML)” (Biogen MA Inc., priority 2007, dated 2016).
Where two headings read alike, the source gives them in different places.

Columns and labels:
JCV = experiment: Anti-JCV activity of structural analogs (Tables 4 and 5); format: cell-based, JC polyomavirus (JCV)
JCV strain Mad1/SVEΔ = experiment: microbe, parasite or virus in culture; format: cell-based, JC polyomavirus (JCV); details: for % Inhibition (total #JCV+) @10 uM: SV40 transformed glial cells, Mad-1/SVEΔ JCV; for % Inhibition (% JCV+) @10 uM: infection rate, JCV+ cells normalised to total cells
Procedure: (§1) SV40 transformed glial cells were seeded in 10% FBS media. The cells were seeded at 2000 cells per well in 75 μl of media per well. On day 2, the media was removed and replaced by 35 μl of a 1× concentrated drug aliquot combined with a 100× diluted JCV Turbo aliquot in 35 μl of 2% FBS media (JCV Turbo is a hybrid Mad-1/SVEΔ virus constructed by insertion of the regulatory region of SV40 into the regulatory region of the Mad-1 strain of JCV (Mad-1/SVE), Vacante et al., Virology 1989, 170: 353-361). The cells were incubated for an hour, after which another 65 uL aliquot of 1× concentrated drug in 2% FBS was added. On day 5 the cells were stained with DAPI (for total cell number) and with a mouse monoclonal antibody against SV40 VP1, which cross reacts with the JCV VP1 protein. […] The information is tabulated as % inhibition (as measured by the number and percentage of JCV positive cells).
(§2) JCV Infectivity Assay: SVG-A cells were seeded at 2,000 cells/well/0.075 ml of culture media in 96 flat-bottom well plate (Corning, N.Y.). The next day compounds were prepared in assay medium (2% heat-inactivated fetal bovine serum, 4 mM L-glutamine, 1×MEM). A master viral plate was prepared by mixing equal volumes of [2×] compound and [2×] diluted virus for the final 1× concentration of the compound and the virus. The plate containing cells was gently inverted and shaken to remove media. From the master plate, 0.035 ml compound/virus was added to designated wells. The cells were incubated with the compound/virus mixture for 60 minutes in a humidified 37° C. CO2 incubator. At that time final concentration of the drug in media was added to designated wells to bring the final volume up to 0.1 ml/well. The plates were incubated for an additional three days, the cells were then washed once with 1×PBS, and fixed in 2% paraformaldehyde/1×PBS for 30 minutes at room temperature. The fixative was removed and the cells were solubilized with 0.5% Triton X100 in PBS for an additional 30 minutes. Infection by Mad-1/SVEΔ virus was visualized by staining with PAB597, a monoclonal antibody against the major capsid protein VP1, the cells were incubated with 0.05 ml of PAB597 (2 μg/ml in 1×PBS) for 60 minutes at 37° C. Following a wash step with 1×PBS, primary antibody was detected with an Alexa-Fluor 488-labeled goat anti-mouse secondary antibody at 1:100 dilution in 1×PBS, cells were counterstained with DAPI at 1 μg/ml (0.05 ml/well) for 30 minutes at 37° C. Cells were washed with 1×PBS and 0.1 ml 1×PBS was added to cells. Field images of each well were acquired and analyzed using the Cellomics ArrayScan (Thermo Scientific Inc, Waltham, Mass.) using the Target Activation software. […] The cells are seeded at 4,000 cells/well/0.075 ml of culture media in 96 flat-bottom well plate (Corning). The culture media is used for the infection. The length of the infection is six to ten days (instead of the three days for SVG-A cells).
Calculations: The rate of JCV infection was calculated by normalizing the number of JCV infected cells by the total number of nucleated cells as % JCV^+ cells=((total # VP1^+ cells)/(total # DAPI^+ cells))*100%. The % of viral inhibition by a compound was calculated using a JCV infection rate instead of using total number of JCV infected cells (e.g., VP1^+ cells).

SVG-A cells = experiment: Total cell number (DAPI+ events) / cytotoxicity in the JCV infectivity assay; details: for inhibition at 10 µM: Homo sapiens, SVG-A, read-out: % Inhibition total Cell Number @10 uM; for % Inhibition total Cell Number @10 uM: cytotoxicity, DAPI count
Procedure: as §1, §2
The primary assay employed an SVG-A cell line and JCV Mad1/SVEΔ viral strain.

[1] = published PK data; cited from earlier work
[2] = JC polyomavirus, Glial cell, read-out: % Inhibition (total #JCV+) @10 uM
[3] = JC polyomavirus, SVG-A, read-out: % Inhibition (% JCV+) @10 uM
[4] = Table 4, mefloquine functional fingerprint in silico screen compounds

Row | Compound | inhibition at 10 µM (JCV strain Mad1/SVEΔ; [2]) [%] | inhibition at 10 µM (JCV strain Mad1/SVEΔ; [3]) [%] | inhibition at 10 µM (SVG-A cells) [%] | also measured
1 | CC(=O)OC(C)C1CCC2C3CCC4=CC(O)CCC4(C)C3CCC12C (stereo not drawn) [4-PREGNEN-3-BETA, 20-BETA-DIOL 20-ACETATE] |  |  |  | anti-JCV activity (JCV; Table 5, fusidic acid analogs): Yes
2 | Clc1ccc(COC(Cn2ccnc2)c2ccc(Cl)cc2Cl)c(Cl)c1 (stereo not drawn) [MICONAZOLE NITRATE] | 46 | 42 | 7 | CC50 (SVG-A cells; read-out: TC50, inhibition of total cell numbers by 50%): 22.9 µM; plasma Cmax [1]: 10 ng/mL
3 | CC1=C(/C=C/C(C)=C/C=C/C(C)=C\C(=O)O)C(C)(C)CCC1 [ISOTRETINOIN] | 39 | 28 | 15 | IC50 (JCV strain Mad1/SVEΔ; JC polyomavirus, SVG-A): 4.4 µM; plasma Cmax [1]: 1100 ng/mL
4 | CC(=O)OC(C)C1CCC2C3CC(O)C4CC(O)CCC4(C)C3CCC12C (stereo not drawn) [5-BETA-PREGNAN-3-ALPHA, 6-ALPHA, 20-BETA-TRIOL 20-ACETATE] |  |  |  | anti-JCV activity (JCV; Table 5, fusidic acid analogs): Yes
5 | Nc1nccc2c1ncn2[C@@H]1O[C@H](CO)[C@@H](O)[C@H]1O [3-DEAZAADENOSINE] |  |  |  | anti-JCV activity (JCV; [4]): Yes
6 | Nc1nc2c(ncn2[C@@H]2O[C@H](CO)[C@@H](O)[C@H]2O)c(=O)[nH]1 [GUANOSINE] |  |  |  | anti-JCV activity (JCV; [4]): No
7 | COc1ccc2c(c1)c(CC(=O)OCC(=O)O)c(C)n2C(=O)c1ccc(Cl)cc1 [ACEMETACIN] | 32 | 38 | -8 | 
8 | COc1ccc([C@@H](C)C(=O)c2ccc(O)cc2O)cc1 [(R)-ANGOLENSIN] |  |  |  | % Inhibition (total #JCV+) @10 uM (JCV strain Mad1/SVEΔ): 18%; % Inhibition (% JCV+) @10 uM (JCV strain Mad1/SVEΔ): 22%; % Inhibition total Cell Number @10 uM (SVG-A cells): −5%
9 | O=c1cc(-c2ccc(O)cc2)oc2ccc(O)cc12 [6,4′-DIHYDROXYFLAVONE] | 18 | 22 | -5 | 
10 | Nc1nc(OCC2CCCCC2)c2[nH]cnc2n1 [O6-Cyclohexylmethylguanine] |  |  |  | anti-JCV activity (JCV; [4]): Yes
11 | COc1cc(C)c(C(=O)Oc2cc(C)c(C(=O)O)c(O)c2C)c(OC)c1C [DIFFRACTIC ACID] |  |  |  | % Inhibition (total #JCV+) @10 uM (JCV strain Mad1/SVEΔ): 44%; % Inhibition (% JCV+) @10 uM (JCV strain Mad1/SVEΔ): 36%; IC50 (JCV strain Mad1/SVEΔ; anti-JCV, inhibition of % JCV infected cells by 50%, full dose response, read-out: IC50): 14.4 µM; CC50 (SVG-A cells): > 40 µM; % Inhibition total Cell Number @10 uM (SVG-A cells): 13%
12 | COc1cc2c(cc1-c1cc3cc4ccoc4cc3oc1=O)OCO2 [PACHYRRHIZIN] |  |  |  | % Inhibition (total #JCV+) @10 uM (JCV strain Mad1/SVEΔ): 45%; % Inhibition (% JCV+) @10 uM (JCV strain Mad1/SVEΔ): 34%; % Inhibition total Cell Number @10 uM (SVG-A cells): 17%
13 | C[C@H](N)CO [L-ALANINOL] |  |  |  | % Inhibition (total #JCV+) @10 uM (JCV strain Mad1/SVEΔ): 13%; % Inhibition (% JCV+) @10 uM (JCV strain Mad1/SVEΔ): 31%; % Inhibition total Cell Number @10 uM (SVG-A cells): −23%
14 | Cc1c(Cl)cccc1Nc1ccccc1C(=O)O [TOLFENAMIC ACID] | 61 | 53 | 18 | 
15 | CCCCCCCCCCCCCCCC(=O)OC[C@@H](NC(=O)C(Cl)Cl)[C@H](O)c1ccc([N+](=O)[O-])cc1 [CHLORAMPHENICOL PALMITATE] | 20 | 29 | -13 | 
16 | COc1cc(/C=C/C(=O)N2CCC=CC2=O)cc(OC)c1OC [PIPLARTINE] | 21 | 27 | -7 | 
17 | O=c1c2ccccc2oc2ccccc12 [XANTHONE] | 39 | 39 | 1 | IC50 (JCV strain Mad1/SVEΔ; JC polyomavirus, SVG-A): 16.8 µM
18 | Nc1ncnc2c1ncn2[C@@H]1O[C@H](CO)[C@@H](O)[C@H]1O [ADENOSINE] |  |  |  | anti-JCV activity (JCV; [4]): No

Row | Compound | inhibition at 10 µM (JCV strain Mad1/SVEΔ; [2]) [%] | inhibition at 10 µM (JCV strain Mad1/SVEΔ; [3]) [%] | inhibition at 10 µM (SVG-A cells) [%] | also measured
19 | COc1ccc2cc(CCC(C)=O)ccc2c1 [NABUMETONE] | 20 | 23 | -2 | 
20 | C[C@H]1C[C@H]2[C@@H]3CCC4=CC(=O)C=C[C@]4(C)[C@@]3(F)[C@@H](O)C[C@]2(C)[C@@]1(O)C(=O)CO [BETAMETHASONE] | 34 | 24 | 14 | 
21 | CC(=O)OCC(=O)[C@@]12OC3(CCCC3)O[C@@H]1C[C@H]1[C@@H]3CCC4=CC(=O)C=C[C@]4(C)[C@@]3(F)[C@@H](O)C[C@@]12C [AMCINONIDE] | 16 | 25 | -11 | 
22 | COc1cc([C@@H]2c3cc4c(cc3[C@H](O)[C@H]3COC(=O)[C@@H]23)OCO4)cc(OC)c1OC [PICROPODOPHYLLOTOXIN] | 19 | 22 | -1 | 
23 | C[C@@H]1CC[C@@]2(OC1)O[C@H]1C[C@H]3[C@@H]4CC[C@H]5C[C@@H](O)CC[C@]5(C)C4=CC[C@]3(C)[C@H]1[C@@H]2C [3beta-HYDROXYISOALLOSPIROST-9(11)-ENE] |  |  |  | % Inhibition (total #JCV+) @10 uM (JCV strain Mad1/SVEΔ): 25%; % Inhibition (% JCV+) @10 uM (JCV strain Mad1/SVEΔ): 21%; % Inhibition total Cell Number @10 uM (SVG-A cells): 3%
24 | CC(=O)OC(C)C1CCC2C3CC(O)C4CC(O)CCC4(C)C3CCC12C (stereo not drawn) [5-BETA-PREGNAN-3-ALPHA, 6-ALPHA, 20-ALPHA-TRIOL 20-ACETATE] |  |  |  | anti-JCV activity (JCV; Table 5, fusidic acid analogs): No
25 | O=c1cc(-c2ccccc2)oc2cccc(O)c12 [PRIMULETIN] |  |  |  | % Inhibition (total #JCV+) @10 uM (JCV strain Mad1/SVEΔ): 40%; % Inhibition (% JCV+) @10 uM (JCV strain Mad1/SVEΔ): 29%; % Inhibition total Cell Number @10 uM (SVG-A cells): 12%
26 | Nc1ncnc2c1nc(Cl)n2[C@@H]1O[C@H](CO)[C@@H](O)[C@H]1O [8-CHLOROADENOSINE] |  |  |  | anti-JCV activity (JCV; [4]): Yes
27 | GINKGOLIC ACID |  |  |  | % Inhibition (total #JCV+) @10 uM (JCV strain Mad1/SVEΔ): 33%; % Inhibition (% JCV+) @10 uM (JCV strain Mad1/SVEΔ): 39%; % Inhibition total Cell Number @10 uM (SVG-A cells): −8%
28 | O=S1OCC2C(CO1)C1(Cl)C(Cl)=C(Cl)C2(Cl)C1(Cl)Cl (stereo not drawn) [ENDOSULFAN] | 54 | 44 | 19 | 
29 | CC/C(=C(/CC)c1ccc(O)cc1)c1ccc(O)cc1 [DIETHYLSTILBESTROL] | 42 | 29 | 18 | 
30 | C[C@H]1CC[C@]2(NC1)O[C@H]1C[C@H]3[C@@H]4CC[C@H]5C[C@@H](O[C@@H]6O[C@H](CO)[C@H](O[C@@H]7O[C@H](CO)[C@@H](O)[C@H](O[C@@H]8OC[C@@H](O)[C@H](O)[C@H]8O)[C@H]7O[C@@H]7O[C@H](CO)[C@@H](O)[C@H](O)[C@H]7O)[C@H](O)[C@H]6O)CC[C@]5(C)[C@H]4CC[C@]3(C)[C@H]1[C@@H]2C [TOMATINE] | 40 | 29 | 12 | 
31 | O=c1cc(-c2ccccc2)oc2cc(O)cc(O)c12 [CHRYSIN] | 18 | 26 | -12 | 
32 | CC[C@@H](CO)Nc1nc(NCc2ccccc2)c2ncn(C(C)C)c2n1 (single isomer, unassigned) [ROSCOVITINE, (S)-ISOMER] |  |  |  | anti-JCV activity (JCV; [4]): Yes
33 | OCCN(CCO)c1nc(N2CCCCC2)c2nc(N(CCO)CCO)nc(N3CCCCC3)c2n1 [DIPYRIDAMOLE] | 24 | 22 | 3 | 
34 | CC(=O)O[C@H]1CC[C@H]2[C@@H]3CCC4=C[C@@H](O)CC[C@@H]4[C@H]3CC[C@]12C [4-ESTREN-3-BETA, 17-BETA-DIOL 17-ACETATE] |  |  |  | anti-JCV activity (JCV; Table 5, fusidic acid analogs): Yes
35 | CC(=O)OC1CC2CC(O)CCC2(C)C2CC(OC(C)=O)C3(C)C(C(C)CC(=O)O)CCC3C12 (stereo not drawn) [23-NOR-5-BETA-CHOLANIC ACID-3-ALPHA, 7-ALPHA, 12-ALPHA-TRIOL 7,12-DIACETATE] |  |  |  | anti-JCV activity (JCV; Table 5, fusidic acid analogs): No
36 | CC1=CCc2c(cc3oc(C)cc(=O)c3c2O)OC1 [PTAEROXYLIN] | 32 | 22 | 11 | 
